From patent US7455861B2, “Angelicae sinensis extracts useful for treatment of cancers” (priority 2004, dated 2008) come the findings set out here.

SMILES strings stand for the structures. In brackets after ≈: the same amount, converted by molar mass.

Data set [1] in a line: Cytotoxicity (IC50) on HDF. In kind it is cell-based, human. Conditions: human, human dermal fibroblasts (HDF), normal cells; Table 1, value in parentheses. From the text:
Human umbilical vascular endothelial cells (HUVECs) were purchased from Cascade Biologics, Inc. (USA). HUVECs were maintained in Medium 200 (Cascade Biologics, Inc. USA) supplemented with 10% fetal bovine serum (FBS; Gibco BRL) and low serum growth supplement (LSGS; Cascade Biologics, Inc. USA). Human dermal fibroblasts (HDFs) were purchased from Cascade Biologics, Inc. (USA). HDFs were maintained in Medium 106 (Cascade Biologics, Inc. USA) supplemented with 10% FBS and low serum growth supplement (LSGS; Cascade Biologics, Inc. USA). The human colon adenocarcinoma cell lines HT-29 were purchased from the ATCC (Manassas, Va. USA). HT-29 were maintained in Dubecco's Modified Eagle Medium (DMEM; Gibco) supplemented with 10% FBS and 100 ng/ml penicillin and […] streptomycin (Life Technologies, Inc., Grand Island, N.Y., USA). For the proliferation assay of cell in log growth (G1), the cells were harvested at 60-80% of confluence. 100 μl of cell suspensions were dispensed onto a Falcon 96-well plates The densities were 6×10^3 cells/well in Medium 200 (for HUVECs), and 9×10^3 cells/well in Medium 106 (for HDFs), and 5×10^3 cells/well in DMEM (for HT-29) supplemented with 10% FBS. The cells were pre-incubated for 24 hours in an incubator (Humidified atmosphere, e.g., at 37° C., 5% CO2). 10 μl of toxicant of various concentrations were added into the culture medium of the plate. The cell cultures were incubated for 48 hours. 10 μl of the Cell Counting Kit-8 (CCK-8; DOJINDO) solution were added and the cell cultures incubated for 1˜4 hours in the incubator. The absorbance was measured at 450 nm, using a microplate reader with a reference wavelength at 600 nm or over.
(§1) Human tumor cell lines (MCF-7, CL1-5, HT-29, Caco-2), human umbilical vascular endothelial cells (HUVEC), and human dermal fibroblasts (HDF) were tested for sensitivity on Angelicae sinensis extracts, ligustilide, n-butylidenephthalide and its derivatives in vitro. The DBTRG-05MG, BCM, HL-60 and J5 cells were grown in RPMI-1640 medium containing 10% fetal calf serum and 100 ng/ml penicillin and […] streptomycin at 37° C. in a humidified atmosphere with 5% CO2. The G5T/VGH, RG2, Ni 8, SVEC and Balb/3T3 cells were cultured in DMEM with 10% fetal calf serum and 100 ng/ml penicillin and […] streptomycin at 37° C. in 5% CO2. Mycoplasma infection of the culture cells was excluded by PCR screening methods before each experiment.
(§2) The effects on cell viability after the treatments with different concentrations of the Angelicae sinensis extracts or the active components purified therefrom were evaluated by modified MTT assay in triplicate. Briefly, the cells (5×10^3) were incubated into 96-well plates containing 100 μl of a growth medium. The cells were permitted to adhere for 24 hours, then treated with 100 μl of the herbal extracts or the active components dissolved in the medium. The control contained DMSO of <0.02% (v/v). After 24, 48 and 72 h incubation, the drug-containing medium was replaced by 50 μl of fresh medium, and cells in each well were incubated in 50 μl of 400 μg/ml MTT for 6-8 h. The medium and MTT were removed later and 100 μl of DMSO was added to each well and to the control, to dissolve the soluble components. Absorbance at 550 nm of the solutions was measured with MRX Microtiter Plate Luminometer (DYNEX, USA). The absorbance of untreated cells was considered as 100%. […]

Data set [2] can be described thus: Cytotoxicity (IC50) on Balb/3T3. In kind it is cell-based. Conditions: mouse, Balb/3T3 cells. On the procedure: as §1
as §2, with “After 24, 48 and 72 h incubation, the drug-containing medium was replaced by 50 μl of fresh medium, and cells in each well were incubated in 50 μl of 400 μg/ml MTT for 6-8 h. The medium and MTT were removed later and 100 μl of DMSO was added to each well and to the control, to dissolve the soluble components.” left out

The test system of data set [3] is brain tumor cell lines. Description: Cytotoxicity (IC50) on brain tumor cell lines, pooled statement. In kind it is cell-based. Conditions: read-out: IC50 to brain tumor cell lines. On the procedure: The effects on cell viability after the treatments with different concentrations of the Angelicae sinensis extracts or the active components purified therefrom were evaluated by modified MTT assay in triplicate. Briefly, the cells (5×10^3) were incubated into 96-well plates containing 100 μl of a growth medium. The cells were permitted to adhere for 24 hours, then treated with 100 μl of the herbal extracts or the active components dissolved in the medium. The control contained DMSO of <0.02% (v/v). After 24, 48 and 72 h incubation, the drug-containing medium was replaced by 50 μl of fresh medium, and cells in each well were incubated in 50 μl of 400 μg/ml MTT for 6-8 h. The medium and MTT were removed later and 100 μl of DMSO was added to each well and to the control, to dissolve the soluble components. Absorbance at 550 nm of the solutions was measured with MRX Microtiter Plate Luminometer (DYNEX, USA). The absorbance of untreated cells was considered as 100%. To evaluate the effects of the extracts or the active components on cell growth rate of GBM cells, 5×10^3 exponentially growing cells were treated with different concentrations for 24, 48, or 72 h. The cytotoxicity of each test substance was determined as an IC50 value, which represents the drug concentration required to cause 50% inhibition. All experiments in this study were performed in triplicate.

For data set [4], the system named is RG2 cells. Description: In situ (intra-cranial) RG2 GBM tumor in rats, MRI tumor volume. The format is in vivo, F344 rats. Conditions: BP 300 mg/kg/day s.c. day 4-8, i.c. RG2. How it is done: The RG2 cells (rat GBM) and DBTRG-05MG cells (human GBM) were used in animal experiments to monitor the anti-tumor activities of AS-C and BP. Male F344 rat (230-260 g) and male Foxn1 nu/nu mice (10-12 weeks) were obtained from National Laboratory Animal Center (Taipei, Taiwan). All procedures were performed in compliance with the Standard Operation Procedures of the Laboratory Animal Center of Tzu Chi University (Hualien, Taiwan). Animals were kept under pathogen-free conditions and fed a standard laboratory diet. The DBTRG-05MG cells (human GBM) and RG2 cells (rat GBM) were prepared for nude mice xenografts and rat allogenics, respectively.
The cytotoxic effect of AS-C on in situ tumor was determined with RG2 cells. […] Tumor volumes were measured and calculated by 3-T unit MRI (General Electric, Wisconsin, USA) with echo-planar imaging capability (Signa LX 3.8, General Electric, Wisconsin, USA) in Buddhist Tzu Chi General Hospital (Hualien, Taiwan). […]
The rats in two groups (6/group) were implanted i.c. (striatum) with 5×10^4 RG2 cells, and randomly treated with BP (300 mg/kg/day) or vehicle s.c. in the hind flank region after tumor cell implantation at day 4, 5, 6, 7 and 8 for five dosages. Tumor volume was measured and calculated by MRI. […] Finally, the whole tumor sizes (mm^3) were measured and calculated for each group.

In general, IC50 refers to the midpoint of a concentration-inhibition curve. For `CCCC=C1OC(=O)c2ccccc21` [BP, n-Butylidenephthalide], the half-inhibitory concentration (IC50) was 1.6 mM in data set [1]; more than 300 µg/mL in data set [2] (Table 2); more than 1.6 mM in data set [2] (Table 2, value in parentheses); 1.4 to 10 µg/mL (≈ 7.44 to 53.1 µM) in data set [3]. The “mean tumor volume at day 14 (MRI)” value in data set [4] is recorded as 46.6±1.8 mm^3. For the same compound, the “mean tumor volume at day 16 (MRI)” value in data set [4] came out at 91.68±8.3 mm^3.
